Measurements reported in patent US11199542B2, “Method for labeling specifically living bacteria comprising the use of modified non endogenous monosaccharide compounds” (priority 2015, dated 2021).

Experiments:
Serratia marcescens [1] = assay: Metabolic labeling of living bacteria, click chemistry and fluorescence microscopy; type: cell-based; design: key: +: strains showing highly distinctive fluorescence on their membrane, indicative of an effective metabolic incorporation of the chemical reporter; −: the absence of labeling; settings: first of two entries (Table 1 order: CIP102446), compound 10 mM, 24 hours, fluorochrome-alkyne click 30 minutes
Neisseria meningitidis = assay: as above; type: cell-based; design: key: +: strains showing highly distinctive fluorescence on their membrane, indicative of an effective metabolic incorporation of the chemical reporter; −: the absence of labeling; settings: compound 10 mM, 24 hours, fluorochrome-alkyne click 30 minutes
Klebsiella pneumoniae [2] = assay: as above; type: cell-based; design: key: +: strains showing highly distinctive fluorescence on their membrane, indicative of an effective metabolic incorporation of the chemical reporter; −: the absence of labeling; settings: second of two entries (Table 1 order: Clinical strain), compound 10 mM, 24 hours, fluorochrome-alkyne click 30 minutes
Vibrio cholerae = assay: as above; type: cell-based; design: key: +: strains showing highly distinctive fluorescence on their membrane, indicative of an effective metabolic incorporation of the chemical reporter; −: the absence of labeling; settings: compound 10 mM, 24 hours, fluorochrome-alkyne click 30 minutes
Staphylococcus aureus = assay: as above; type: cell-based; design: key to labeling (fluorescence on membrane, metabolic incorporation of the chemical reporter): +: strains showing highly distinctive fluorescence on their membrane, indicative of an effective metabolic incorporation of the chemical reporter; −: the absence of labeling
Neisseria gonorrhoeae = assay: as above; type: cell-based; design: key to labeling (fluorescence on membrane, metabolic incorporation of the chemical reporter): +: strains showing highly distinctive fluorescence on their membrane, indicative of an effective metabolic incorporation of the chemical reporter; −: the absence of labeling
[3] = system: Salmonella Typhimurium 12023; assay: as above; type: cell-based; design: key: +: strains showing highly distinctive fluorescence on their membrane, indicative of an effective metabolic incorporation of the chemical reporter; −: the absence of labeling; settings: compound 10 mM, 24 hours, fluorochrome-alkyne click 30 minutes
Listeria monocytogenes ½ = assay: as above; type: cell-based; design: key to labeling (fluorescence on membrane, metabolic incorporation of the chemical reporter): +: strains showing highly distinctive fluorescence on their membrane, indicative of an effective metabolic incorporation of the chemical reporter; −: the absence of labeling
Serratia marcescens [4] = assay: as above; type: cell-based; design: key: +: strains showing highly distinctive fluorescence on their membrane, indicative of an effective metabolic incorporation of the chemical reporter; −: the absence of labeling; settings: second of two entries (Table 1 order: Clinical strain), compound 10 mM, 24 hours, fluorochrome-alkyne click 30 minutes
[5] = system: Legionella pneumophila sg6; type: cell-based; design: key: +: strains showing highly distinctive fluorescence on their membrane, indicative of an effective metabolic incorporation of the chemical reporter; −: the absence of labeling; settings: compound 10 mM, 24 hours, fluorochrome-alkyne click 30 minutes
Klebsiella pneumoniae [6] = assay: Metabolic labeling of living bacteria, click chemistry and fluorescence microscopy; type: cell-based; design: key: +: strains showing highly distinctive fluorescence on their membrane, indicative of an effective metabolic incorporation of the chemical reporter; −: the absence of labeling; settings: first of two entries (Table 1 order: CIP 101114), compound 10 mM, 24 hours, fluorochrome-alkyne click 30 minutes
Proteus mirabilis = assay: as above; type: cell-based; design: key: +: strains showing highly distinctive fluorescence on their membrane, indicative of an effective metabolic incorporation of the chemical reporter; −: the absence of labeling; settings: compound 10 mM, 24 hours, fluorochrome-alkyne click 30 minutes
[7] = system: Pseudomonas fluorescens Migula; assay: as above; type: cell-based; design: key: +: strains showing highly distinctive fluorescence on their membrane, indicative of an effective metabolic incorporation of the chemical reporter; −: the absence of labeling; settings: compound 10 mM, 24 hours, fluorochrome-alkyne click 30 minutes
Staphylococcus epidermis = assay: as above; type: cell-based; design: key to labeling (fluorescence on membrane, metabolic incorporation of the chemical reporter): +: strains showing highly distinctive fluorescence on their membrane, indicative of an effective metabolic incorporation of the chemical reporter; −: the absence of labeling
Providenda stuartii = assay: as above; type: cell-based, Providencia stuartii; design: key: +: strains showing highly distinctive fluorescence on their membrane, indicative of an effective metabolic incorporation of the chemical reporter; −: the absence of labeling; settings: compound 10 mM, 24 hours, fluorochrome-alkyne click 30 minutes
[8] = system: Staphylococcus aureus aureus; assay: as above; type: cell-based; design: key to labeling (fluorescence on membrane, metabolic incorporation of the chemical reporter): +: strains showing highly distinctive fluorescence on their membrane, indicative of an effective metabolic incorporation of the chemical reporter; −: the absence of labeling
Micrococcus luteus = assay: as above; type: cell-based; design: key to labeling (fluorescence on membrane, metabolic incorporation of the chemical reporter): +: strains showing highly distinctive fluorescence on their membrane, indicative of an effective metabolic incorporation of the chemical reporter; −: the absence of labeling
[9] = system: Stenotrophomonas maltophilia; assay: as above; type: cell-based; design: key: +: strains showing highly distinctive fluorescence on their membrane, indicative of an effective metabolic incorporation of the chemical reporter; −: the absence of labeling; settings: compound 10 mM, 24 hours, fluorochrome-alkyne click 30 minutes
Escherichia coli O86 = assay: as above; type: cell-based; design: key: +: strains showing highly distinctive fluorescence on their membrane, indicative of an effective metabolic incorporation of the chemical reporter; −: the absence of labeling; settings: compound 10 mM, 24 hours, fluorochrome-alkyne click 30 minutes
Enterococcus faecalis = assay: as above; type: cell-based; design: key to labeling (fluorescence on membrane, metabolic incorporation of the chemical reporter): +: strains showing highly distinctive fluorescence on their membrane, indicative of an effective metabolic incorporation of the chemical reporter; −: the absence of labeling
Escherichia coli K12 = assay: as above; type: cell-based; design: key: +: strains showing highly distinctive fluorescence on their membrane, indicative of an effective metabolic incorporation of the chemical reporter; −: the absence of labeling; settings: compound 10 mM, 24 hours, fluorochrome-alkyne click 30 minutes
[10] = system: Listeria monocytogenes ½a; assay: as above; type: cell-based; design: key: +: strains showing highly distinctive fluorescence on their membrane, indicative of an effective metabolic incorporation of the chemical reporter; −: the absence of labeling; settings: compound 10 mM, 24 hours, fluorochrome-alkyne click 30 minutes
[11] = compound 10 mM, 24 hours, fluorochrome-alkyne click 30 minutes

[N-]=[N+]=NC[C@@H](O)[C@@H](O)[C@H](O)[C@H](O)CC(=O)C(=O)O [Kdo-N3, 8-azido-3,8-dideoxy-D-manno-octulosonate]
labeling (fluorescence on membrane, metabolic incorporation of the chemical reporter) (Serratia marcescens [1]): +
labeling (fluorescence on membrane, metabolic incorporation of the chemical reporter) (Neisseria meningitidis): +
labeling (fluorescence on membrane, metabolic incorporation of the chemical reporter) (Klebsiella pneumoniae [2]): +
labeling (fluorescence on membrane, metabolic incorporation of the chemical reporter) (Vibrio cholerae): +
assimilation by the bacteria (in words) (Staphylococcus aureus): did not assimilate
labeling (fluorescence on membrane, metabolic incorporation of the chemical reporter) (Staphylococcus aureus; [11]): −
assimilation by the bacteria (in words) (Neisseria gonorrhoeae): did not assimilate
labeling (fluorescence on membrane, metabolic incorporation of the chemical reporter) (Neisseria gonorrhoeae; [11]): −
labeling (fluorescence on membrane, metabolic incorporation of the chemical reporter) [3]: +
assimilation by the bacteria (in words) (Listeria monocytogenes ½; Listeria monocytogenes (strain not given)): did not assimilate
labeling (fluorescence on membrane, metabolic incorporation of the chemical reporter) (Listeria monocytogenes ½; Listeria monocytogenes ½, compound 10 mM, 24 hours, fluorochrome-alkyne click 30 minutes): −
labeling (fluorescence on membrane, metabolic incorporation of the chemical reporter) (Serratia marcescens [4]): +
labeling (fluorescence on membrane, metabolic incorporation of the chemical reporter) [5]: +
labeling (fluorescence on membrane, metabolic incorporation of the chemical reporter) (Klebsiella pneumoniae [6]): +
labeling (fluorescence on membrane, metabolic incorporation of the chemical reporter) (Proteus mirabilis): +
labeling (fluorescence on membrane, metabolic incorporation of the chemical reporter) [7]: +
assimilation by the bacteria (in words) (Staphylococcus epidermis): did not assimilate
labeling (fluorescence on membrane, metabolic incorporation of the chemical reporter) (Staphylococcus epidermis; [11]): −
labeling (fluorescence on membrane, metabolic incorporation of the chemical reporter) (Providenda stuartii): +
assimilation by the bacteria (in words) [8]: did not assimilate
labeling (fluorescence on membrane, metabolic incorporation of the chemical reporter) [8, 11]: −
assimilation by the bacteria (in words) (Micrococcus luteus): did not assimilate
labeling (fluorescence on membrane, metabolic incorporation of the chemical reporter) (Micrococcus luteus; [11]): −
labeling (fluorescence on membrane, metabolic incorporation of the chemical reporter) [9]: +
labeling (fluorescence on membrane, metabolic incorporation of the chemical reporter) (Escherichia coli O86): +
assimilation by the bacteria (in words) (Enterococcus faecalis): did not assimilate
labeling (fluorescence on membrane, metabolic incorporation of the chemical reporter) (Enterococcus faecalis; [11]): −
labeling (fluorescence on membrane, metabolic incorporation of the chemical reporter) (Escherichia coli K12): +
labeling (fluorescence on membrane, metabolic incorporation of the chemical reporter) [10]: −
